# Target: T1, human MDM2 (GST-hMDM2 1-188), interaction with biotinylated-p53 (1-83) (Homo sapiens, UniProt Q00987)
# T1 construct: Amino acid residues 1-188 of human MDM2 were expressed; made in house; host or cells: Escherichia coli
# Assay: improved HTRF assay (HTRF2 assay), inhibition of HDM2-p53 interaction
# Assay type: binding
# Conditions: 0.2 nM GST-hMDM2, 0.5 nM biotinylated-p53, 100 mM KF
# In short: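 Time-resolved fluorescence (HTRF) read after >4 h equilibration with SA-XLent/anti-GST cryptate/KF detection reagents. Reaction: compound plus GST-hMDM2 for 20 min at room temperature, then E. coli-expressed biotinylated p53 residues 1-83 for 60 min, 2% DMSO final. Inhibition expressed versus nutlin-3.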
# T1 sequence (Q00987 1-188): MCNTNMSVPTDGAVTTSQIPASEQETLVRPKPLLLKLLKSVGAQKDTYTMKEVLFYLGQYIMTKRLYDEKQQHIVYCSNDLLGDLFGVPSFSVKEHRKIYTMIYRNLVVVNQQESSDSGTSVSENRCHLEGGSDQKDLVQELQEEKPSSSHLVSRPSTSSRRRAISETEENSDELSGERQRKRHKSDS
row,Structure (SMILES),IC50 [nM]
1,"O=C(O)C[C@H]1O[C@H](c2cccc(Cl)c2)[C@@H](c2ccc(Cl)cc2)N([C@H](CS(=O)(=O)N2CCOCC2)C2CC2)C1=O (single isomer, unassigned) [Example 302, 2-((2R,5R,6R)-6-(3-Chlorophenyl)-5-(4-chlorophenyl)-4-((S)-1-cyclopropyl-2-(morpholinosulfonyl)ethyl)-3-oxomorpholin-2-yl)acetic acid or 2-((2S,5R,6R)-6-(3-chlorophenyl)-5-(4-chlorophenyl)-4-((S)-1-cyclopropyl-2-(morpholinosulfonyl)ethyl)-3-oxomorpholin-2-yl)acetic acid]",< 1
2,"CC[C@@H](CCS(=O)(=O)C(C)(C)C)N1C(=O)[C@@H](CC(=O)O)O[C@H](c2cccc(Cl)c2)[C@H]1c1ccc(Cl)cc1 (single isomer, unassigned) [Example 221, 2-((2R,5R,6R)-4-((S)-1-(tert-butylsulfonyl)pentan-3-yl)-6-(3-chlorophenyl)-5-(4-chlorophenyl)-3-oxomorpholin-2-yl)acetic acid or 2-((2S,5R,6R)-4-((S)-1-(tert-butylsulfonyl)pentan-3-yl)-6-(3-chlorophenyl)-5-(4-chlorophenyl)-3-oxomorpholin-2-yl)acetic acid]",12
3,"CC[C@]1(CC(=O)O)O[C@H](c2cccc(Cl)c2)[C@@H](c2ccc(Cl)cc2)N([C@@H](CC(F)(F)F)CS(=O)(=O)C(C)(C)C)C1=O (single isomer, unassigned) [Example 343, 2-((2R,5R,6R)-4-((S)-1-(tert-Butylsulfonyl)-4,4,4-trifluorobutan-2-yl)-6-(3-chlorophenyl)-5-(4-chlorophenyl)-2-ethyl-3-oxomorpholin-2-yl)acetic acid or 2-((2S,5R,6R)-4-((S)-1-(tert-butylsulfonyl)-4,4,4-trifluorobutan-2-yl)-6-(3-chlorophenyl)-5-(4-chlorophenyl)-2-ethyl-3-oxomorpholin-2-yl)acetic acid]",1
4,"CC(C)(C)S(=O)(=O)C[C@H](CC(F)(F)F)N1C(=O)[C@@](C)(CC(=O)O)O[C@H](c2cccc(Cl)c2)[C@H]1c1ccc(Cl)cc1 (single isomer, unassigned) [Example 341, 2-((2R,5R,6R)-4-((S)-1-(tert-Butylsulfonyl)-4,4,4-trifluorobutan-2-yl)-6-(3-chlorophenyl)-5-(4-chlorophenyl)-2-methyl-3-oxomorpholin-2-yl)acetic acid or 2-((2S,5R,6R)-4-((S)-1-(tert-butylsulfonyl)-4,4,4-trifluorobutan-2-yl)-6-(3-chlorophenyl)-5-(4-chlorophenyl)-2-methyl-3-oxomorpholin-2-yl)acetic acid]",< 1
5,"CC[C@@H]([C@H](C)S(=O)(=O)C(C)(C)C)N1C(=O)[C@@H](CC(=O)O)O[C@H](c2cccc(Cl)c2)[C@H]1c1ccc(Cl)cc1 (single isomer, unassigned) [Example 419]",4
6,"C[C@@H]1CCCN1S(=O)(=O)C[C@H](C1CC1)N1C(=O)[C@@H](CC(=O)O)O[C@H](c2cccc(Cl)c2)[C@H]1c1ccc(Cl)cc1 (single isomer, unassigned) [Example 305, 2-((2R,5R,6R)-6-(3-Chlorophenyl)-5-(4-chlorophenyl)-4-((S)-1-cyclopropyl-2-(((R)-2-methylpyrrolidin-1-yl)sulfonyl)ethyl)-3-oxomorpholin-2-yl)acetic acid or 2-((2S,5R,6R)-6-(3-chlorophenyl)-5-(4-chlorophenyl)-4-((S)-1-cyclopropyl-2-(((R)-2-methylpyrrolidin-1-yl)sulfonyl)ethyl)-3-oxomorpholin-2-yl)acetic acid]",< 1
7,"Cc1n[nH]c(C[C@H]2O[C@H](c3cccc(Cl)c3)[C@@H](c3ccc(Cl)cc3)N([C@H](CN(c3ccccc3F)S(=O)(=O)C3CC3)C3CC3)C2=O)n1 (single isomer, unassigned) [Example 393, N-((S)-2-((2R,3R,6R)-2-(3-Chlorophenyl)-3-(4-chlorophenyl)-6-((3-methyl-1H-1,2,4-triazol-5-yl)methyl)-5-oxomorpholino)-2-cyclopropylethyl)-N-(2-fluorophenyl)cyclopropanesulfonamide or N-((S)-2-((2S,3R,6R)-2-(3-chlorophenyl)-3-(4-chlorophenyl)-6-((3-methyl-1H-1,2,4-triazol-5-yl)methyl)-5-oxomorpholino)-2-cyclopropylethyl)-N-(2-fluorophenyl)cyclopropanesulfonamide]",< 1
8,"CC(C)(C)SC[C@H](C1CC1)N1C(=O)[C@@H](CC(=O)O)O[C@H](c2ccc(Br)c(Cl)c2)[C@H]1c1ccc(Cl)cc1 (single isomer, unassigned) [Example 322, 2-((2R,5R,6R)-6-(4-Bromo-3-chlorophenyl)-4-((S)-2-(tert-butylthio)-1-cyclopropylethyl)-5-(4-chlorophenyl)-3-oxomorpholin-2-yl)acetic acid or 2-((2S,5R,6R)-6-(4-bromo-3-chlorophenyl)-4-((S)-2-(tert-butylthio)-1-cyclopropylethyl)-5-(4-chlorophenyl)-3-oxomorpholin-2-yl)acetic acid]",51
9,"CC(C)(C#N)S(=O)(=O)C[C@H](C1CC1)N1C(=O)[C@@H](CC(=O)O)O[C@H](c2cccc(Cl)c2)[C@H]1c1ccc(Cl)cc1 (single isomer, unassigned) [Example 291, 2-((2R,5R,6R)-6-(3-Chlorophenyl)-5-(4-chlorophenyl)-4-((S)-2-((2-cyanopropan-2-yl)sulfonyl)-1-cyclopropylethyl)-3-oxomorpholin-2-yl)acetic acid or 2-((2S,5R,6R)-6-(3-chlorophenyl)-5-(4-chlorophenyl)-4-((S)-2-((2-cyanopropan-2-yl)sulfonyl)-1-cyclopropylethyl)-3-oxomorpholin-2-yl)acetic acid]",< 1
10,"CC[C@@H](CS(=O)(=O)C(C)(C)C)N1C(=O)[C@@H](CNC(=O)N(CC)CC)O[C@H](c2cccc(Cl)c2)[C@H]1c1ccc(Cl)cc1 (single isomer, unassigned) [Example 376, 3-(((2R,5R,6R)-4-((S)-1-(tert-Butylsulfonyl)butan-2-yl)-6-(3-chlorophenyl)-5-(4-chlorophenyl)-3-oxomorpholin-2-yl)methyl)-1,1-diethylurea or 3-(((2S,5R,6R)-4-((S)-1-(tert-butylsulfonyl)butan-2-yl)-6-(3-chlorophenyl)-5-(4-chlorophenyl)-3-oxomorpholin-2-yl)methyl)-1,1-diethylurea]",48
11,"O=C(C[C@H]1O[C@H](c2cccc(Cl)c2)[C@@H](c2ccc(Cl)cc2)N([C@H](CN(c2ccccc2F)S(=O)(=O)C2CC2)C2CC2)C1=O)Nc1ccccn1 (single isomer, unassigned) [Example 369, 2-((2R,5R,6R)-6-(3-Chlorophenyl)-5-(4-chlorophenyl)-4-((S)-1-cyclopropyl-2-(N-(2-fluorophenyl)cyclopropanesulfonamido)ethyl)-3-oxomorpholin-2-yl)-N-(pyridin-2-yl)acetamide or 2-((2S,5R,6R)-6-(3-chlorophenyl)-5-(4-chlorophenyl)-4-((S)-1-cyclopropyl-2-(N-(2-fluorophenyl)cyclopropanesulfonamido)ethyl)-3-oxomorpholin-2-yl)-N-(pyridin-2-yl)acetamide]",8
12,"CC[C@@H]([C@H](C)S(=O)(=O)C(C)C)N1C(=O)[C@@H](CC(=O)O)O[C@H](c2cccc(Cl)c2)[C@H]1c1ccc(Cl)cc1 (single isomer, unassigned) [Example 413]",< 1
13,"CC(C)(C)S(=O)(=O)C[C@@H](C1CCC1)N1C(=O)[C@@H](CC(=O)O)O[C@H](c2cccc(Cl)c2)[C@H]1c1ccc(Cl)cc1 (single isomer, unassigned) [Example 273, 2-((2R,5R,6R)-4-((R)-2-(tert-Butylsulfonyl)-1-cyclobutylethyl)-6-(3-chlorophenyl)-5-(4-chlorophenyl)-3-oxomorpholin-2-yl)acetic acid or 2-((2S,5R,6R)-4-((R)-2-(tert-butylsulfonyl)-1-cyclobutylethyl)-6-(3-chlorophenyl)-5-(4-chlorophenyl)-3-oxomorpholin-2-yl)acetic acid]",95
14,"CC(C)(C)S(=O)(=O)C[C@H](C1CC1)N1C(=O)[C@@H](CC#N)O[C@H](c2cccc(Cl)c2)[C@H]1c1ccc(Cl)cc1 (single isomer, unassigned) [Example 388, 2-((2R,5R,6R)-4-((S)-2-(tert-Butylsulfonyl)-1-cyclopropylethyl)-6-(3-chlorophenyl)-5-(4-chlorophenyl)-3-oxomorpholin-2-yl)acetonitrile or 2-((2S,5R,6R)-4-((S)-2-(tert-butylsulfonyl)-1-cyclopropylethyl)-6-(3-chlorophenyl)-5-(4-chlorophenyl)-3-oxomorpholin-2-yl)acetonitrile]",28
15,"CCC[C@@H](CS(=O)(=O)C(C)(C)C)N1C(=O)[C@@H](CC(=O)O)O[C@H](c2cccc(Cl)c2)[C@H]1c1ccc(Cl)cc1 (single isomer, unassigned) [Example 194, 2-((2R,5R,6R)-4-((S)-1-(tert-butylsulfonyl)pentan-2-yl)-6-(3-chlorophenyl)-5-(4-chlorophenyl)-3-oxomorpholin-2-yl)acetic acid or 2-((2S,5R,6R)-4-((S)-1-(tert-butylsulfonyl)pentan-2-yl)-6-(3-chlorophenyl)-5-(4-chlorophenyl)-3-oxomorpholin-2-yl)acetic acid]",3
16,"CC[C@@H](CN(c1ccccc1F)S(=O)(=O)C1(C)CC1)N1C(=O)[C@@H](CC(=O)O)O[C@H](c2cccc(Cl)c2)[C@H]1c1ccc(Cl)cc1 (single isomer, unassigned) [Example 175, 2-((2R,5R,6R)-6-(3-chlorophenyl)-5-(4-chlorophenyl)-4-((S)-1-(N-(2-fluorophenyl)-1-methylcyclopropanesulfonamido)butan-2-yl)-3-oxomorpholin-2-yl)acetic acid or 2-((2S,5R,6R)-6-(3-chlorophenyl)-5-(4-chlorophenyl)-4-((S)-1-(N-(2-fluorophenyl)-1-methylcyclopropanesulfonamido)butan-2-yl)-3-oxomorpholin-2-yl)acetic acid]",< 1

# From patent US9376425B2, “Heterocyclic compounds as MDM2 inhibitors for the treatment of cancer” (AMGEN INC., priority 2011, dated 2016)
